# Patent US7572923B2, “Indirubin derivatives having anticancer property against human cancer cell line” (Anygen Co., Ltd., priority 2004, dated 2009)
# How the values were obtained:
# [1] = tested on: human abdominal cavity cancer cell line (HT 1080); assay: Inhibition of cancer cell line proliferation, HT 1080; assay type: cell-based; conditions: HT-1080, 96 h, HT108, 3˜4 days incubation, absorbance at 515 nm
# Description: (§1) For measuring the proliferation inhibition by indirubin compound, the method disclosed in K. Likhitwitayawuid et al. Journal. Nat. Prod. […] Followings are simple description of this method. The cancer cell line is diluted into 5×10^4 cfu/ml. Then, various concentrations of test compounds are added to 96 well microtiter plate containing diluted cell line. After incubating test plate for 3˜4 days at 37° C., the test plate is dried and Tris-base is added. Then, using ELISA plate detector, the absorbance at 515 nm is measured. IC50 is measured by non-linear regression method.
# [2] = tested on: human leukemia cell line (HL-60); assay: Differentiation with low concentration 1,25-(OH)2D3 or ATRA, NBT reduction method; assay type: cell-based; conditions: for % of Differentiation, 1,25-(OH)2D3: 1 μM compound with 5 nM of 1,25-(OH)2D3; for % of Differentiation, all-trans RA: 1 μM compound with 50 nM of ATRA
# Description: (§2) For measuring the differentiation inducing effect to acute bone merrow leukemia cell line (HL-60) by indirubin AGM compound, NBT (nitroblue tetrazolium) reduction reaction method is employed. The leukemia cell line is diluted into 2×10^5 cfu/ml. After treating 20 μM and 1 μM concentrations of test compounds, test plate is incubated for 3 days at 37° C. in 5% CO2 incubator. Incubated cells are washed with phosphate buffered saline (PBS). Then, they are further incubated in PBS solution containing 0.1% NBT and 200 ng/ml of PMA (phorbol 12-myristate 13-acetate) for 30 minutes at 37° C. Incubated cells are centrifuged and collected cells are washed with PBS solution. Using cell number counter, differentiated cells forming nitroblue formazan among total cells are counted.
# Next, we test if AGM compound of present invention can synergically induce the differentiation of acute bone merrow leukemia cell line when it is treated with low concentration of 1,25-dihydroxyvitamin D3[1,25-(OH)2D3] or all-trans retinoic acid (ATRA) known as differentiation inducing agent. […] […] As a positive control, conventional differentiation inducing agent is used.
# [3] = tested on: human colon cancer cell line (Col2); assay: Inhibition of cancer cell line proliferation, Col2; assay type: cell-based; conditions: 96 h, 3˜4 days incubation, absorbance at 515 nm
# Description: as §1
# [4] = tested on: human lung cancer cell line (A549); assay: Inhibition of cancer cell line proliferation, A549; assay type: cell-based; conditions: 96 h, 3˜4 days incubation, absorbance at 515 nm
# Description: as §1
# [5] = tested on: leukemia cell line (HL-60); assay: Differentiation inducing effect, NBT reduction method; assay type: cell-based, human; conditions: 3 days
# Description: as §2, with “After treating 20 μM and 1 μM concentrations of test compounds, test plate is incubated for 3 days at 37° C. in 5% CO2 incubator.” left out
# [6] = tested on: human stomach cancer cell line (SNU-638); assay: Inhibition of cancer cell line proliferation, SNU-638; assay type: cell-based; conditions: 96 h, 3˜4 days incubation, absorbance at 515 nm
# Description: as §1
# [7] = tested on: human leukemia cell line (HL-60); assay: Inhibition of cancer cell line proliferation, HL-60; assay type: cell-based; conditions: HL-60, 96 h, HL60, 3˜4 days incubation, absorbance at 515 nm
# Description: as §1
# [8] = tested on: human cell line (HT 1080); assay: Inhibition of cancer cell line proliferation, HT 1080; assay type: cell-based; conditions: HT-1080, 96 h, read-out: IC50 HT108
# Description: as §1
IC50 [1] [µM],IC50 [3] [µM],IC50 [4] [µM],IC50 [6] [µM],IC50 [7] [µM],Structure (SMILES),"% of Differentiation, 1,25-(OH)2D3 [2] [%]","% of Differentiation, all-trans RA [2] [%]",% of Differentiation ([5]; 1 μM compound) [%],% of Differentiation ([5]; 20 μM compound) [%],IC50 [8] [µM]
42.2,> 100,31,> 100,–,"O=C1Nc2ccccc2C1=C1Nc2ccccc2C1=O [AGM001, 1H,1′H-[2,3′] biindolylidene-3,2′-dione]",28.36 ± 0.15,39.61 ± 1.25,7.76 ± 3.42,10.00 ± 0.27,–
4.8,> 100,62,> 100,–,"O=C1Nc2ccccc2C1=C1Nc2ccccc2C1=NO [AGM002, 1H,1′H-[2,3′] biindolylidene-3,2′-dione 3-oxime]",24.52 ± 2.67,37.78 ± 1.06,11.12 ± 0.31,6.78 ± 0.40,–
–,–,–,–,–,O=C1Nc2ccc(OC(F)(F)F)cc2C1=C1Nc2ccccc2C1=O [AGM003],22.04 ± 0.38,41.01 ± 1.26,6.27 ± 1.76,10.36 ± 0.29,–
–,–,–,–,–,O=C1Nc2ccc(OC(F)(F)F)cc2C1=C1Nc2ccccc2C1=NO [AGM004],26.36 ± 3.05,28.68 ± 0.23,22.81 ± 2.38,–,–
> 100,> 100,> 100,> 100,> 100,"CC(=O)N1C(=C2C(=O)Nc3ccccc32)C(=O)c2ccccc21 [AGM006, 1-acetyl-1H,1′H-[2,3′] biindolylidene-3,2′-dione]",19.60 ± 0.56,42.81 ± 1.05,9.99 ± 1.47,10.49 ± 0.25,–
> 100,> 100,> 100,> 100,> 100,"O=C1Nc2ccc([N+](=O)[O-])cc2C1=C1Nc2ccccc2C1=O [AGM009, 5′-nitro-1H,1′H-[2,3′] biindolylidene-3,2′-dione]",48.51 ± 3.49,59.32 ± 1.54,19.94 ± 2.02,29.26 ± 1.59,–
36.7,> 100,20.4,17.6,65.4,"Cc1ccc2c(c1)C(=C1Nc3ccccc3C1=NO)C(=O)N2 [AGM013, 5′-methyl-1H,1′H-[2,3′] biindolylidene-3,2′-dione 3-oxime]",35.49 ± 5.45,70.54 ± 2.17,26.22 ± 2.04,–,–
> 100,> 100,> 100,> 100,> 100,"O=C1Nc2ccc(I)cc2C1=C1Nc2ccccc2C1=NO [AGM015, 5′-iodo-1H,1′H-[2,3′] biindolylidene-3,2′-dione 3-oxime]",33.27 ± 0.75,67.41 ± 1.36,30.50 ± 4.97,–,–
> 100,> 100,> 100,90.6,> 100,"Cc1cc(C)c2c(c1)C(=C1Nc3ccccc3C1=NO)C(=O)N2 [AGM016, 5′,7′-dimethyl-1H,1′H-[2,3′] biindolylidene-3,2′-dione 3-oxime]",27.24 ± 1.32,33.99 ± 0.47,3.07 ± 1.69,10.35 ± 0.62,–
–,> 100,> 100,> 100,> 100,"Cc1cc(Cl)cc2c1NC(=O)C2=C1Nc2ccccc2C1=NO [AGM017, 5′-chloro-7′-methyl-1H,1′H-[2,3′] biindolylidene-3,2′-dione 3-oxime]",22.10 ± 0.90,43.17 ± 1.56,8.37 ± 0.45,2.62 ± 0.23,> 100
73.6,10.5,38.6,32.9,25,"O=C1Nc2ccccc2C1=C1Nc2ccc(Br)cc2C1=NO [AGM018, 5-bromo-1H,1′H-[2,3′] biindolylidene-3,2′-dione 3-oxime]",36.52 ± 1.27,23.13 ± 0.71,8.69 ± 4.95,–,–
–,–,–,–,–,"O=C1Nc2ccc(S(=O)(=O)[O-])cc2C1=C1Nc2ccccc2C1=O.[Na+] [AGM019, 3,2′-dioxo-1,3,1′,2′-tetrahydro-[2,3′] biindolylidene-5′-sodium sulfonate]",27.66 ± 1.28,51.49 ± 0.13,9.36 ± 0.13,12.44 ± 1.66,–
–,–,–,–,–,"O=C1Nc2ccc(S(=O)(=O)[O-])cc2C1=C1Nc2ccccc2C1=NO.[Na+] [AGM020, 3-hydroxyimino-2′-oxo-1,3,1′,2′-tetrahydro-[2,3′] biindolylidene-5′-sodium sulfonate]",23.34 ± 0.65,34.50 ± 2.91,11.34 ± 2.32,23.86 ± 1.31,–
> 100,> 100,> 100,> 100,> 100,"O=C1Nc2ccccc2C1=C1Nc2ccc(Br)cc2C1=O [AGM021, 5-bromo-1H,1′H-[2,3′] biindolylidene-3,2′-dione]",24.64 ± 0.65,28.23 ± 0.02,11.63 ± 3.48,9.64 ± 0.51,–
–,–,–,–,–,O=C1Nc2ccc([N+](=O)[O-])cc2C1=C1Nc2ccc(Br)cc2C1=O [AGM022],48.28 ± 0.36,51.20 ± 3.70,18.35 ± 0.02,22.89 ± 0.51,–
–,24.6,9.13,10,13,"Nc1ccc2c(c1)C(=C1Nc3ccccc3C1=NO)C(=O)N2 [AGM031, 5′-amino-1H,1′H-[2,3′] biindolylidene-3,2′-dione-3-oxime]",–,–,–,–,5.07
–,–,–,–,–,O=C1Nc2ccccc2/C1=C1/Nc2ccccc2C1=O [Indirubin],26.39 ± 0.98,44.87 ± 2.54,15.28 ± 1.12,1.18 ± 0.18,–

Structure (SMILES),IC50 [1] [µM],IC50 [3] [µM],IC50 [4] [µM],IC50 [6] [µM],IC50 [7] [µM],"% of Differentiation, 1,25-(OH)2D3 [2] [%]","% of Differentiation, all-trans RA [2] [%]",% of Differentiation ([5]; 1 μM compound) [%],% of Differentiation ([5]; 20 μM compound) [%],IC50 [8] [µM]
"O=C1Nc2ccc(F)cc2C1=C1Nc2ccccc2C1=O [AGM010, 5′-fluoro-1H,1′H-[2,3′] biindolylidene-3,2′-dione]",–,> 100,96.8,40.3,> 100,78.44 ± 6.88,75.08 ± 6.80,7.53 ± 1.02,13.01 ± 0.14,> 100
"Cc1ccc2c(c1)C(=C1Nc3ccccc3C1=O)C(=O)N2 [AGM024, 5′-methyl-1H,1′H-[2,3′] biindolylidene-3,2′-dione]",–,> 100,> 100,> 100,> 100,41.66 ± 0.40,51.01 ± 0.88,24.89 ± 6.06,14.38 ± 0.42,> 100
